Source: patent US9050320B2, “Method for inducing lymphoid tissue and modulating intestinal homeostasis” (Institut Pasteur, priority 2009, dated 2015)

Assays:
[1] = system: isolated lymphoid follicles (ILFs); experiment: ILFs in SPF mice treated from birth with antibiotics in drinking water; format: in vivo; settings: antibiotic in drinking water
Procedure: Antibodies, fusion proteins and antibiotics. Purified anti-CD11c (HL3) was purchased from BD Biosciences, phycoerythrin (PE)-, allophycocyanin (APC)- or biotin-conjugated anti-CD45R/B220 (RA3-6B2), and anti-CD45.2 (104) were purchased from eBiosciences, and purified anti-GFP (A-11122) and FITC-conjugated anti-rabbit polyclonal were purchased from Invitrogen. Neutralizing anti-CCL20 (114906) antibody was purchased from R&D Systems and 50-100 μg was injected i.p. in PBS twice a week. Human IgG1 and LTβR-Ig fusion protein have been previously described ^12; 100 μg protein was injected i.p. into pregnant mice 14.5 and 16.5 days after conception, or 50 μg protein was injected i.p. into newborn mice 1 day, 6 days and 12 days after birth, then 100 μg 15 days after birth. Vancomycin and colistin were purchased from Sigma and supplied to mice in the drinking water at a concentration of 500 mg/l and 1 g/l, respectively.
Immunofluorescence histology. […] Slides were examined under an Axiolmager M1 fluorescence microscope (Zeiss) equipped with a CCD camera and images were processed with AxioVision software (Zeiss). For the quantification of CPs and ILFs, 10-20 sections were cut at regular intervals through the whole thickness of flat ileal or colonic fragments of 2 cm in length and stained. CPs and ILFs were then counted under a fluorescence microscope.

[2] = system: isolated lymphoid follicles (ILFs); experiment: ILF formation in germfree mice reconstituted with bacteria; format: in vivo; settings: adult germfree mice reconstituted, 8 weeks
Procedure: Bacterial strains and culture. ASF bacteria include the Gram^+Clostridium propionicum (ASF 356), Lactobacillus acidophilus (ASF 360), Lactobacillus murinus (ASF 361), Eubacterium plexicaudatum (ASF 492), Firmicutes sp. (ASF 500) and Clostridium sp. (ASF 502), the Gram^−Mucispirillum schaedleri (ASF 457) and Bacteroides distasonis (ASF 519) (Supplementary FIG. 2) ^13,34, and were obtained from Taconic. The bacteria were cultured in anaerobic conditions on Schaedler agar (Difco laboratories) supplemented with 5% sterile sheep blood (Biorad) in an anaerobic Glove chamber containing a 5% CO2, 10% H2 and 85% N2 atmosphere (Jacomex). The media were pre-reduced by placing them inside the chamber 2 days prior to inoculation of bacteria. Cultures were incubated in the chamber at 37° C. for different periods of time (1-5 days) depending on the bacterial strain. […]
Bacterial colonization of germfree mice. […] Fecal pellets from inoculated mice were assessed for colonization by microscopic examination of smears and quantified by serial dilutions of stool spread on Schaedler agar plates or by quantitative PCR (qPCR). […] Mice were colonized to similar levels by strains MC1061 and MHD79 (˜2.5×10^9 cfu/g of feces) and analyzed 8 weeks after bacterial reconstitution. […]

Euprymna scolopes = settings: squid light organ; cited from earlier work
[3] = system: isolated lymphoid follicles (ILFs); experiment: ILF formation in germfree mice given peptidoglycans in the drinking water; format: in vivo
Procedure: Peptidoglycans. Peptidoglycan were purified from E. coli strain MC1061 as previously described ^32. Highly purified PGN (total of 100 mg) was digested with mutanolysin (Sigma) ^33 to generate the entire range of muropeptides present in E. coli PGN (Supplementary FIG. 3b). Soluble muropeptides were separated by reverse phase HPLC, and the N-acetylglucosamyl-β1,4-N-acetylmuramyl-L-alanyl-D-γ-glytamyl-meso-diaminopimelate-D-alanine (GMtetraDAP) was collected and purity tested by a new HPLC analysis (Supplementary FIG. 3b). The nature of the GMtetraDAP was confirmed by MALDI-TOF mass spectrometry analysis as previously described ^33. Muramyldipeptide (MDP) was purchased from Sigma. Mice received MDP or GMtetraDAP in drinking water at a fixed concentration of 1 μM from the age of 2 weeks (Experiment I) or form birth (experiment II) for different periods of time.
Immunofluorescence histology. Intestines were opened and washed several times in PBS before fixation overnight at 4° C. in a fresh solution of 4% paraformaldehyde (Sigma) in PBS. The samples were then washed 1 day in PBS, incubated in a solution of 30% sucrose (Sigma) in PBS until the samples sank, embedded in OCT compound 4583 (Sakura Finetek), frozen in a bath of isopentane cooled with liquid nitrogen and stocked at −80° C. Frozen blocs were cut at 8 μm thickness and sections collected onto Superfrost/Plus slides (VWR). Slides were dried 1 hour and processed for staining, or stocked at −80° C. For staining, slides were first hydrated in PBS-XG, (PBS containing 0.1% triton X-100 and 1% normal bovine serum, VWR) for 5 min and blocked with 10% bovine serum in PBS-XG for 1 hour at room temperature. […] Slides were examined under an Axiolmager M1 fluorescence microscope (Zeiss) equipped with a CCD camera and images were processed with AxioVision software (Zeiss). For the quantification of CPs and ILFs, 10-20 sections were cut at regular intervals through the whole thickness of flat ileal or colonic fragments of 2 cm in length and stained. CPs and ILFs were then counted under a fluorescence microscope.

## colistin
[1]
  formation of ILFs: formed few ILFs

## Lactobacillus acidophilus
[2]
  induction of ileal and colonic ILFs: induced no or few ILFs

## tracheal cytotoxin [TCT]
Euprymna scolopes
  hemocyte infiltration of crypts, epithelial apoptosis and morphogenesis: recapitulated by TCT alone

## CN[C@H](CC(C)C)C(=O)N[C@H]1C(=O)N[C@@H](CC(N)=O)C(=O)N[C@H]2C(=O)N[C@H]3C(=O)N[C@H](C(=O)N[C@H](C(=O)O)c4cc(O)cc(O)c4-c4cc3ccc4O)[C@H](O)c3ccc(c(Cl)c3)Oc3cc2cc(c3O[C@@H]2O[C@H](CO)[C@@H](O)[C@H](O)[C@H]2O[C@H]2C[C@](C)(N)[C@H](O)[C@H](C)O2)Oc2ccc(cc2Cl)[C@H]1O [vancomycin, Vancomycin]
[1]
  formation of ILFs: formed significant numbers of ILFs, but lower numbers than in control mice

## CC(=O)N[C@H]1[C@H](O[C@H]2[C@H](O[C@H](C)C(=O)N[C@@H](C)C(=O)N[C@H](CCC(=O)N[C@@H](CCC[C@@H](N)C(=O)O)C(=O)N[C@H](C)C(=O)O)C(=O)O)[C@@H](NC(C)=O)C(O)O[C@@H]2CO)O[C@H](CO)[C@@H](O)[C@@H]1O (stereo partly drawn) [GMtetraDAP, N-acetylglucosamyl-β1,4-N-acetylmuramyl-L-alanyl-D-γ-glytamyl-meso-diaminopimelate-D-alanine]
[3]; 8 weeks old germ free mice, in drinking water from birth
  ILFs in sections from the ileum (histology): ILFs were numerous and showed some level of follicular organization
[3]; germfree mice, 1 μM in drinking water, 10 weeks of treatment starting from birth (Experiment II)
  ILFs in the colon: Significant numbers of ILFs were also detected
[3]; germfree mice, 1 μM in drinking water, after 6 weeks of treatment
  induction of ILFs in the ileum: induced a significant number of ILFs, mostly iILFs
